Measured values published in PMC6274474, “Synthesis and Cytotoxic Activity on Human Cancer Cells of Novel Isoquinolinequinone–Amino Acid Derivatives” (Molecules, 2016).

Assays:
[1] = tested on: MRC-5 normal human lung fibroblasts; assay: MTT cytotoxicity assay, 72 h, normal human lung fibroblasts; type: cell-based; details: MRC5; normal human lung fibroblasts, MTT, 72 h exposure, six determinations; read-out: IC50 ± SEM MRC-5
Procedure: (§1) The series of isoquinolinequinone amino ester conjugates (Table 1) and the bromine derivatives (Table 2) were evaluated for their in vitro cytotoxic activities against normal human lung fibroblast (MRC-5) and three human cancer cells lines: human gastric adenocarcinoma (AGS), human lung cancer (SK-MES-1), and human bladder carcinoma (J82), in 72 h drug exposure assays. The cytotoxic activities of the new compounds were measured using conventional microculture tetrazolium reduction assays. The cytotoxic activities of each of the quinones are expressed in terms of IC50.
(§2) Cytotoxicity assay (Table 3 and Table 4). […] MRC-5, SK-MES-1, and J82 cells were grown in Eagle’s minimal essential medium (EMEM) containing 2 mM L-glutamine, 1 mM sodium pyruvate and 1.5 g/L sodium hydrogen carbonate. AGS cells were grown in Ham F-12 supplemented with 2 mM L-glutamine and 1.5 g/L sodium hydrogen carbonate. Finally, HL-60 cells were grown in RPMI medium. […] For the cytotoxicity experiments, cells were seeded into 96-well plates at a density of 50,000 cells/mL. After reaching confluence, cells were incubated for three days with compounds at varied concentrations ranging from 0 up to 100 μM while untreated cells (medium containing 1% DMSO) were used as controls. Cytotoxicity was assessed using the MTT (3-(4,5-dimethylthiazol-2-yl)-2,5-diphenyltetrazolium bromide) reduction assay. MTT was used at 1 mg/mL and the blue formazan crystals, formed during MTT reduction, were dissolved adding 100 μL of ethanol (acidified with HCl). The absorbance was measured at 550 nm using a Universal Microplate Reader (ELX 800, Bio-Tek Instruments Inc., Winooski, VT, USA). Values were the means of six replicates for each concentration and transformed to percentage of controls. The IC50 value was graphically obtained from the dose–response curves by adjusting them to a sigmoidal model (a + (b − a)/1 + 10(x − c)), where c = log IC50.

[2] = tested on: J82 human bladder carcinoma cells; assay: MTT cytotoxicity assay, 72 h, bladder carcinoma cells; type: cell-based; details: 72 h exposure, six determinations, read-out: IC50 ± SEM J82
Procedure: as §1, §2

[3] = tested on: SK-MES-1 human lung cancer cells; assay: MTT cytotoxicity assay, 72 h, lung cancer cells; type: cell-based; details: 72 h exposure, six determinations, read-out: IC50 ± SEM SK-MES-1
Procedure: as §1, §2

[4] = tested on: AGS, SK-MES-1 and J82 human cancer cell lines; assay: MTT cytotoxicity, 72 h, panel summary (mean/range/selective index) over AGS, SK-MES-1, J82 vs MRC-5; type: cell-based; details: SK-MES-1, J82; for MSI: Mean Selective Index = IC50 values for fibroblasts/IC50 values tumor cells: MRC-5 vs AGS; for IC50: Homo sapiens, SK-MES-1, 72 h, range over AGS, 72 h MTT, read-out: IC50 values range over the cancer cell lines
Procedure: as §1, §2

[5] = tested on: AGS human gastric adenocarcinoma cells; assay: MTT cytotoxicity assay, 72 h, gastric adenocarcinoma cells; type: cell-based; details: 72 h exposure, six determinations, read-out: IC50 ± SEM AGS
Procedure: as §1, §2

melting point	SMILES	IC50 [1]	IC50 [2]	IC50 [3]	MSI: Mean Selective Index = IC50 values for fibroblasts/IC50 values tumor cells [4]	IC50 [5]	IC50 [4]
105 to 106.6 °C	COC(=O)c1c(C)ncc2c1C(=O)C(NC(C(=O)OC)C(C)C)=C(Br)C2=O (centres unmarked) [Compound 13b]	2110 ± 110 nM	8760 ± 610 nM	3900 ± 310 nM	0.41	2700 ± 140 nM	
71.5 to 73 °C	COC(=O)c1c(C)ncc2c1C(=O)C(N[C@H](Cc1ccccc1)C(=O)OC)=CC2=O [Compound 10b, Methyl 6- and 7-(1-methoxy-1-oxo-3-phenylpropan-2-ylamino)-3-methyl-5,8-dioxo-5,8-dihydroisoquinoline-4-carboxylate]	1780 ± 120 nM	3030 ± 170 nM	1200 ± 50 nM	0.82	1980 ± 110 nM	580 to 3180 nM
58.5 to 60.5 °C	COC(=O)c1c(C)ncc2c1C(=O)C(N[C@@H](CC(C)C)C(=O)OC)=CC2=O [Compound 4b, Methyl 6- and 7-(1-methoxy-4-methyl-1-oxopentan-2-ylamino)-3-methyl-5,8-dioxo-5,8-dihydroisoquinoline-4-carboxylate]	1770 ± 140 nM	2350 ± 90 nM	2220 ± 120 nM	0.86	1590 ± 70 nM	580 to 3180 nM
105.2 to 107 °C	COC(=O)c1c(C)ncc2c1C(=O)C(Br)=C(NC(C(=O)OC)C(C)C)C2=O (centres unmarked) [Compound 13a]	2980 ± 210 nM	4010 ± 190 nM	2280 ± 90 nM	1.15	1920 ± 130 nM	

Second part, the compound before the results:

SMILES	melting point	IC50 [1]	IC50 [2]	IC50 [3]	MSI: Mean Selective Index = IC50 values for fibroblasts/IC50 values tumor cells [4]	IC50 [5]	IC50 [4]
COC(=O)c1c(C)ncc2c1C(=O)C=C(N[C@@H](Cc1c[nH]c3ccccc13)C(=O)OC)C2=O [Compound 8a, Methyl 6- and 7-(3-(1H-indol-3-yl)-1-methoxy-1-oxopropan-2-ylamino)-3-methyl-5,8-dioxo-5,8-dihydroisoquinoline-4-carboxylate]		6620 ± 460 nM	7560 ± 520 nM	3630 ± 180 nM	1.45	2540 ± 180 nM	
COC(=O)c1c(C)ncc2c1C(=O)C=C(N[C@H](C(=O)OC)C(C)C)C2=O [Compound 3a, Methyl 6- and 7-(1-methoxy-3-methyl-1-oxobutan-2-ylamino)-3-methyl-5,8-dioxo-5,8-dihydro-isoquinoline-4-carboxylate]		4940 ± 250 nM	7490 ± 440 nM	4620 ± 280 nM	1.10	1940 ± 80 nM	
COC(=O)c1c(C)ncc2c1C(=O)C=C(N[C@@H](CCSC)C(=O)OC)C2=O [Compound 5a]		5220 ± 310 nM	6000 ± 320 nM	2930 ± 110 nM	1.42	2540 ± 210 nM	
